The results in this text go back to patent US20230234942A1, “COMPOUNDS FOR TREATING HUNTINGTON'S DISEASE” (PTC Therapeutics, Inc., priority 2020, published 2023).

pIC50: −log10 of the molar value.

The subject of this test is Endogenous Huntingtin Protein. Description: Endogenous Huntingtin Protein Assay (ELISA-based MSD electrochemiluminescence). In kind it is cell-based. Particulars: Table 2; MSD plates coated with MW1 (expanded polyglutamine) or MAB2166 capture antibody; "inactive" = result above the detection limit of the assay. An outline of the steps: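 MSD electrochemiluminescence sandwich ELISA: capture with MW1 (expanded polyQ) or MAB2166 at 1 µg/mL, samples incubated overnight at 4 °C. Detection by rabbit mAb #56565 then SULFO-TAG anti-rabbit antibody, each 0.25 µg/mL for 1 h at room temperature, read in buffer T on SI 6000 imager.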
On the technique in general: In an ELISA, binding on a coated surface is turned into a signal by an enzyme label.
As a reminder, the pIC50 is −log10 of the IC50, conventionally taken in molar units. Lower therefore signals a large IC50. Consider `OC[C@@H]1CN(c2ncc(-c3ccc(-n4nccn4)cc3O)nn2)CCN1` [Cpd 45, 2-{3-[(3S)-3-(hydroxymethyl)piperazin-1-yl]-1,2,4-triazin-6-yl}-5-(2H-1,2,3-triazol-2-yl)phenol], for which the negative-log IC50 (pIC50) is 6.85.

Regarding `Cc1cc(C)n2nc(-c3ccc(-c4cnc(N5C[C@@H](C)N[C@@H](C)C5)nn4)c(O)c3)nc2n1` [Cpd 117, 2-{3-[(3R,5S)-3,5-dimethylpiperazin-1-yl]-1,2,4-triazin-6-yl}-5-(5,7-dimethyl[1,2,4]triazolo[1,5-a]pyrimidin-2-yl)phenol], the “IC50 (nM)” value is “inactive”.

`CC(C)[C@H]1CN(c2ncc(-c3ccc(-c4ccc5nncn5c4)cc3O)nn2)CCN1` [Cpd 115, 2-{3-[(3S)-3-(propan-2-yl)piperazin-1-yl]-1,2,4-triazin-6-yl}-5-([1,2,4]triazolo[4,3-a]pyridin-6-yl)phenol] gave a negative-log IC50 (pIC50) of 6.75.

In turn, `CC(C)[C@H]1CN(c2ncc(-c3ncc(-n4nccn4)cc3O)nn2)CCN1` [Cpd 175, 2-{3-[(3S)-3-(propan-2-yl)piperazin-1-yl]-1,2,4-triazin-6-yl}-5-(2H-1,2,3-triazol-2-yl)pyridin-3-ol] had a pIC50 of 6.63.

Take `C[C@@H]1CN(c2ncc(-c3ccc(-c4cn[nH]c4F)cc3O)nn2)C[C@H](C2CC2)N1` [Cpd 221, 2-{3-[(3S,5R)-3-cyclopropyl-5-methylpiperazin-1-yl]-1,2,4-triazin-6-yl]-5-(5-fluoro-1H-pyrazol-4-yl)phenol]: the pIC50 was 8.36.

`Cc1cn2cc(-c3ccc(-c4cnc(N5C[C@@H](C)N[C@@H](C)C5)nn4)c(O)c3)cc(F)c2n1` [Cpd 66, 2-{3-[(3R,5S)-3,5-dimethylpiperazin-1-yl]-1,2,4-triazin-6-yl]-5-(8-fluoro-2-methylimidazo[1,2-a]pyridin-6-yl)phenol] gave a pIC50 of 8.43. The pIC50 values of the last two molecules are within 0.2 log units of each other.

`Cc1nc(-c2ccc(-c3cnc(N4CCN[C@@H](C5CC5)C4)nn3)c(O)c2)ns1` [Cpd 245, 2-{3-[(3S)-3-cyclopropylpiperazin-1-yl]-1,2,4-triazin-6-yl}-5-(5-methyl-1,2,4-thiadiazol-3-yl)phenol] showed a negative logarithm of the IC50 (pIC50) of 7.94. Against the preceding molecule, the pIC50 is 0.49 log units lower.

In turn, `CC1([C@@H]2CN(c3ncc(-c4ccc(-c5cnn6c5CCC6)cc4O)nn3)CCN2)CC1` [Cpd 281, 5-(5,6-dihydro-4H-pyrrolo[1,2-b]pyrazol-3-yl)-2-{3-[(3R)-3-(1-methylcyclopropyl)piperazin-1-yl]-1,2,4-triazin-6-yl}phenol] showed a pIC50 of 6.70. Compared with the last molecule, the pIC50 is 1.24 log units lower.

`CC(C)(C)[C@H]1CN(c2ncc(-c3cc(F)c(-c4cn[nH]c4)cc3O)nn2)CCN1` [Cpd 164, 2-{3-[(3S)-3-tert-butylpiperazin-1-yl]-1,2,4-triazin-6-yl}-4-fluoro-5-(1H-pyrazol-4-yl)phenol] gave a negative logarithm of the IC50 (pIC50) of 8.40.

With `Cn1cc2cc(-c3ccc(-c4cnc(N5CCNC(CO)C5)nn4)c(O)c3)cc(F)c2n1` (stereo not drawn) [Cpd 65, 5-(7-fluoro-2-methyl-2H-indazol-5-yl)-2-{3-[3-(hydroxymethyl)piperazin-1-yl]-1,2,4-triazin-6-yl}phenol], the pIC50 is 8.80. Against the preceding molecule, the pIC50 is 0.40 log units higher.

In the case of `CC(C)[C@H]1CN(c2ncc(-c3ccc(-c4ncsn4)cc3O)nn2)CCN1` [Cpd 239, 2-{3-[(3S)-3-(propan-2-yl)piperazin-1-yl]-1,2,4-triazin-6-yl}-5-(1,2,4-thiadiazol-3-yl)phenol], the negative-log IC50 (pIC50) was 7.91.

As for `Oc1cc(-c2ncco2)ccc1-c1cnc(N2CCN[C@@H](C3CC3)C2)nn1` [Cpd 233, 2-{3-[(3S)-3-cyclopropylpiperazin-1-yl]-1,2,4-triazin-6-yl}-5-(1,3-oxazol-2-yl)phenol], the pIC50 is 7.75.

`CC[C@@H]1CN(c2ncc(-c3ccc(-c4cn[nH]c4)cc3O)nn2)CCN1` [Cpd 48, 2-{3-[(3R)-3-ethylpiperazin-1-yl]-1,2,4-triazin-6-yl}-5-(1H-pyrazol-4-yl)phenol] had a pIC50 of 6.78.

Consider `CC(C)[C@H]1CN(c2ncc(-c3ccc(-c4ncc(C#N)s4)cc3O)nn2)CCN1` [Cpd 272, 2-(3-hydroxy-4-{3-[(3S)-3-(propan-2-yl)piperazin-1-yl]-1,2,4-triazin-6-yl}phenyl)-1,3-thiazole-5-carbonitrile], for which the pIC50 was 6.45.

`Oc1cc(-c2cn[nH]c2F)cc(F)c1-c1cnc(N2CCNC(C3CC3)C2)nn1` (stereo not drawn) [Cpd 32, 2-[3-(3-cyclopropylpiperazin-1-yl)-1,2,4-triazin-6-yl]-3-fluoro-5-(5-fluoro-1H-pyrazol-4-yl)phenol] had a negative-log IC50 (pIC50) of 7.40.

On to `CC(C)[C@H]1CN(c2ncc(-c3ccc(-c4ccns4)cc3O)nn2)CCN1` [Cpd 270, 2-{3-[(3S)-3-(propan-2-yl)piperazin-1-yl]-1,2,4-triazin-6-yl}-5-(1,2-thiazol-5-yl)phenol], for which the pIC50 is 7.53.

In turn, `CC[C@H]1CN(c2ncc(-c3ccc(-c4cnc5nn(C)nc5c4)cc3O)nn2)C[C@@H](C)N1` [Cpd 214, 2-{3-[(3S,5R)-3-ethyl-5-methylpiperazin-1-yl]-1,2,4-triazin-6-yl]-5-(2-methyl-2H-[1,2,3]triazolo[4,5-b]pyridin-6-yl)phenol] gave a negative logarithm of the IC50 (pIC50) of 7.44. The pIC50 values of the last two molecules are within 0.2 log units of each other.

As for `Cc1ncn2cc(-c3ccc(-c4cnc(N5CCN[C@@H](C6CC6)C5)nn4)c(O)c3)ccc12` [Cpd 194, 2-{3-[(3S)-3-cyclopropylpiperazin-1-yl]-1,2,4-triazin-6-yl}-5-(1-methylimidazo[1,5-a]pyridin-6-yl)phenol], the pIC50 was 7.71.

As for `Cn1cc2cc(-c3cnc(-c4cnc(N5CCN[C@@H](C6CC6)C5)nn4)c(O)c3)cc(F)c2n1` [Cpd 181, 2-{3-[(3S)-3-cyclopropylpiperazin-1-yl]-1,2,4-triazin-6-yl}-5-(7-fluoro-2-methyl-2H-indazol-5-yl)pyridin-3-ol], the pIC50 is 8.21. This pIC50 is 0.50 log units higher than that of the molecule before.

In turn, `CC(C)[C@@H]1CN(c2ncc(-c3ccc(-c4cn[nH]c4)cc3O)nn2)C[C@H](C)N1` [Cpd 216, 2-{3-[(3S,5R)-3-methyl-5-(propan-2-yl)piperazin-1-yl]-1,2,4-triazin-6-yl]-5-(1H-pyrazol-4-yl)phenol] gave a pIC50 of 6.66.

On to `C[C@@H]1CN(c2ncc(-c3ccc(-c4cc(F)c5nn(C)cc5c4)cc3O)nn2)C[C@@H](C)N1` [Cpd 76, 2-{3-[(3R,5R)-3,5-dimethylpiperazin-1-yl]-1,2,4-triazin-6-yl}-5-(7-fluoro-2-methyl-2H-indazol-5-yl)phenol], for which the negative-log IC50 (pIC50) is 8.37. This pIC50 is 1.71 log units higher than that of the molecule before.

In turn, `Cc1ccc2c(ccn2-c2ccc(-c3cnc(N4CCN[C@@H](C(C)C)C4)nn3)c(O)c2)n1` [Cpd 159, 5-(5-methyl-1H-pyrrolo[3,2-b]pyridin-1-yl)-2-{3-[(3S)-3-(propan-2-yl)piperazin-1-yl]-1,2,4-triazin-6-yl}phenol] showed a pIC50 of 7.21.

`CCc1cc(-c2ccc(-c3cnc(N4CCN[C@@H](C(C)C)C4)nn3)c(O)c2)ncn1` [Cpd 150, 5-(6-ethylpyrimidin-4-yl)-2-{3-[(3S)-3-(propan-2-yl)piperazin-1-yl]-1,2,4-triazin-6-yl}phenol] gave a negative logarithm of the IC50 (pIC50) of 6.86.

Molecule `Cn1nnc2cnc(-c3ccc(-c4cnc(N5CCN[C@@H](C6CC6)C5)nn4)c(O)c3)cc21` [Cpd 174, 2-{3-[(3S)-3-cyclopropylpiperazin-1-yl]-1,2,4-triazin-6-yl}-5-(1-methyl-1H-[1,2,3]triazolo[4,5-c]pyridin-6-yl)phenol] showed a negative logarithm of the IC50 (pIC50) of 6.22.
